The values that follow are results of earlier work, collected in patent publication US4220642A, “Vasoactive lung polypeptides” (priority 1978, dated 1980).

Data set [1] concerns guinea pig trachea, ileum, gallbladder, pulmonary artery, "lung". The conditions noted are these: trachea (F2 α).
Data set [2] relates to rat stomach strip, rat colon. The conditions noted are these: rat stomach strip and colon.

Consider `CCCCC[C@H](O)/C=C/[C@H]1[C@H](O)CC(=O)[C@@H]1CCCCCCC(=O)O` [Prostaglandin E1], for which, in data set [1], the “contraction of guinea pig smooth-muscle organs by prostaglandins” value is given as “contract”. In addition, in data set [2], the “contraction of rat smooth-muscle organs by prostaglandins” value (from here on “contraction of rat smooth-muscle organs”) is reported as “contract”. For the same compound, in the data set with chick rectum, the “contraction of chick rectum by prostaglandins” value (“contraction of chick rectum” below) is “contract”.

With Prostaglandin F2 α, the “contraction of guinea pig smooth-muscle organs by prostaglandins” value in data set [1] is given as “contracts”. In addition, the “contraction of rat smooth-muscle organs” value in data set [2] is given as “contracting”. The “contraction of chick rectum” value in the data set with chick rectum is “contracting”.

Regarding `CCCCC[C@H](O)/C=C/[C@H]1[C@H](O)CC(=O)[C@@H]1C/C=C\CCCC(=O)O` [Prostaglandin E2], the “contraction of guinea pig smooth-muscle organs by prostaglandins” value in data set [1] is on record as “contract”. Moreover, the “contraction of rat smooth-muscle organs” value in data set [2] is recorded as “contract”. Moreover, in the data set on chick rectum, the “contraction of chick rectum” value is “contract”.
